Laboratory results from patent US12030903B2, “Antiviral compounds” (Gilead Sciences, Inc., priority 2020, dated 2024).

Tests used:
[1] = moDC CC50 (CellTiter Glo viability); assay type: cell-based, Human; details: human, uninfected moDCs
Procedure: Human monocyte-derived dendritic cells (moDCs) were derived from CD14+ monocytes (AllCells) cultured in Human Mo-DC Differentiation medium containing GM-CSF and IL-4 (Miltenyi Biotec). On day 7, moDCs were harvested by mechanical disruption, washed and cultured in triplicate at […] cells/well in 96-well plates with compounds dispensed at graded doses (Hewlett-Packard D300 Digital Dispenser). All wells were normalized to 0.25% DMSO. After 48 hours, CellTiter Glo (Promega) was added and incubated for 10 minutes at room temp before reading on a luminometer. % viability curves were calculated against no compound and no cell control wells. CC50 values were determined using Prism Graphpad software.

[2] = system: Dengue serotype 2 New Guinea C (NGC) strain; test: DENV-2 Huh-7 EC50 (qPCR of viral RNA in infected Huh7 cells); assay type: cell-based; details: Dengue virus, DENV2, Huh-7, Huh7 cells infected with Dengue serotype 2 NGC, MOI=0.1, 48 hours
Procedure: Huh7 (Human hepatocarcinoma 7) cells were maintained in 10% FCS-containing DMEM complete media. On the day of the assay, cells were trypsinized (0.1% Trypsin-EDTA), washed and infected for 2 hours in serum-free DMEM with Dengue serotype 2 New Guinea C (NGC) strain at MOI=0.1 with gentle agitation at 37° C. After 2 hours, cells were washed with serum-free media and suspended in 10% FCS-containing DMEM (Gibco, supplemented with sodium pyruvate, NEAA, Penicillin-Streptomycin). 10^5 cells were plated in triplicate in 96-well plates with compounds dispensed at graded doses (Hewlett-Packard D300 Digital Dispenser). All wells were normalized to 0.25% DMSO. At 48 hours, cells were washed with 1× PBS and all supernatants removed. Total RNA was extracted using RNEasy 96 plates (Qiagen) and used to generate first-strand cDNA using XLT cDNA 5× Supermix (QuantaBio). cDNA was used as a template in a Taqman qPCR duplex reaction specific to DENV2 viral and GAPDH gene expression. EC50 values were determined using Prism Graphpad software, with normalization to a positive control and no compound negative control wells.

[3] = Huh-7 CC50 (CellTiter Glo viability); assay type: cell-based, Human; details: human, Huh7 hepatocarcinoma cells
Procedure: Human hepatocarcinoma 7 (Huh7) cells were maintained in 10% FCS-containing complete DMEM. On day of assay, cells were trypsinized with 0.1% Trypsin-EDTA, washed and cultured in triplicate at 1-2×10^4 cells/well in 96-well plates with compounds dispensed at graded doses (Hewlett-Packard D300 Digital Dispenser). All wells were normalized to 0.25% DMSO. After 48 hours, CellTiter Glo (Promega) was added and incubated for 10 minutes at room temp before reading on a luminometer. % viability curves were calculated against no compound and no cell control wells. CC50 values were determined using Prism Graphpad software.

[4] = system: Dengue 2, New Guinea strain (NGC); test: DENV-2 moDC EC50 (qPCR of viral RNA in infected moDCs); assay type: cell-based, New Guinea strain (NGC); human moDCs; details: Dengue virus, human moDCs infected with Dengue 2 NGC, MOI=0.1, 48 hours
Procedure: Example 82. DENV-2 moDC EC50
Human monocyte-derived dendritic cells (moDCs) were derived from CD14+ monocytes (AllCells) cultured in Human Mo-DC Differentiation medium containing GM-CSF and IL-4 (Miltenyi Biotec). On day 7, moDCs were harvested by mechanical disruption, washed and suspended in serum-free RPMI. moDCs were infected with Vero-derived Dengue 2, New Guinea strain (NGC) at a MOI=0.1 for two hours in serum-free RPMI with gentle agitation at 37° C. Cells were washed and resuspended in 10% serum-containing RPMI (Gibco, supplemented with sodium pyruvate, NEAA, Penicillin-Streptomycin). […] were plated in triplicate in 96-well plates with compounds dispensed at graded doses (Hewlett-Packard D300 Digital Dispenser). All wells were normalized to 0.25% DMSO. At 48 hours, cells were washed with 1×PBS and all supernatants removed. Total RNA was extracted using RNEasy 96 plates (Qiagen) and used to generate first-strand cDNA using XLT cDNA 5× Supermix (QuantaBio). cDNA was used as a template in a Taqman qPCR duplex reaction specific to DENV2 viral and GAPDH gene expression. EC50 values were determined using Prism Graphpad software, with normalization to a positive control and no compound negative control wells.

RSV strain A2 = test: RSV HEp-2 EC50 (infectious cytopathic cell protection assay); assay type: cell-based, RSV strain A2; HEp-2 cells; details: human respiratory syncytial virus, HEp-2, 96 h, read-out: RSV Hep-2 EC50
Procedure: Example 86. RSV HEp-2 EC50
Antiviral activity against RSV is determined using an infectious cytopathic cell protection assay in HEp-2 cells. In this assay, compounds inhibiting viral infection and/or replication produce a cytoprotective effect against the virus-induced cell killing that can be quantified using a cell viability reagent. The techniques used here are novel adaptations of methods described in published literature (Chapman et al., Antimicrob Agents Chemother. 2007, 51(9):3346-53.)
HEp-2 cells are obtained from ATCC (Manassas, VI) and maintained in MEM media supplemented with 10% fetal bovine serum and penicillin/streptomycin. Cells are passaged twice a week and kept at subconfluent stage. Commercial stock of RSV strain A2 (Advanced Biotechnologies, Columbia, MD) is titered before compound testing to determine the appropriate dilution of the virus stock that generates desirable cytopathic effect in HEp-2 cells.
For antiviral tests, HEp-2 cells are grown in large cell culture flasks to near confluency but not fully so. The compounds to be tested are prediluted in DMSO in 384-well compound dilution plates, either in an 8 or 40 sample per plate standardized dose response format. 3-fold serial dilution increments of each test compound are prepared in the plates and test samples are transferred via acoustic transfer apparatus (Echo, Labcyte) at 100 nL per well into cell culture assay 384-well plates. Each compound dilution is transferred in single or quadruplicate samples into dry assay plates, which are stored until assay is ready to go. The positive and negative controls are laid out in opposite on ends of the plate in vertical blocks (1 column).
Subsequently, an infectious mixture is prepared using an appropriate dilution of virus stock previously determined by titration with cells at a density of 50,000/mL and 20 uL/well is added to test plates w/compounds via automation (uFlow, Biotek). Each plate includes negative and positive controls (16 replicates each) to create 0% and 100% virus inhibition standards, respectively. Following the infection with RSV, testing plates are incubated for 4 days in a 37° C. cell culture incubator. After the incubation, a cell viability reagent, Cell TiterGlo (Promega, Madison, WI) is added to the assay plates, which are incubated briefly, and a luminescent readout is measured (Envision, Perkin Elmer) in all the assay plates. The RSV-induced cytopathic effect, percentage inhibition, is determined from the levels of remaining cell viability. […] Various potent anti-RSV tool compounds are used as positive controls for antiviral activity.

[5] = HEp-2 CC50 (cytotoxicity in uninfected HEp-2 cells); assay type: cell-based; details: human, CellTiter Glo
Procedure: Instead, an uninfected cell mixture at the same density is added at 20 uL/well to plates containing prediluted compounds, also at 100 nL/sample. Assay plates are then incubated for 4 days followed by a cell viability test using the same CellTiter Glo reagent addition and measurement of luminescent readouts. Untreated cell and cells treated at 2 μM puromycin (Sigma, St. Louis, MO) serve as 100% and 0% cell viability control, respectively.

Row | Structure (SMILES) | CC50 at 48 h [1] | EC50 [2] | CC50 at 48 h [3] | EC50 [4] | EC50 (RSV strain A2) | CC50 at 4 days [5]
1 | CCC(CC)COC(=O)[C@H](C)N[P@](=O)(OC[C@@]1(CF)O[C@@H](c2ccc3c(=N)n(COP(=O)(O)O)cnn23)[C@H](O)[C@@H]1O)Oc1ccccc1 (single isomer, unassigned) [Example 34] | 7.66 µM | 0.165 µM | 6.47 µM | 0.334 µM | – | –
2 | CCCCCOC(=O)[C@H](C)NP(=O)(OC[C@@]1(CF)O[C@@H](c2ccc3c(N)ncnn23)[C@H](O)[C@@H]1O)Oc1ccccc1 (stereo partly drawn) [Example 59, pentyl ((((2R,3S,4R,5S)-5-(4-aminopyrrolo[2,1-f][1,2,4]triazin-7-yl)-2-(fluoromethyl)-3,4-dihydroxytetrahydrofuran-2-yl)methoxy)(phenoxy)phosphoryl)-L-alaninate] | 7.04 µM | 0.153 µM | 11.3 µM | 0.062 µM | 0.298 µM | 45.1 µM
3 | CCCCCCOC(=O)[C@H](C)N[P@](=O)(OC[C@@]1(CF)O[C@@H](c2ccc3c(N)ncnn23)[C@H](O)[C@@H]1O)Oc1ccccc1 (single isomer, unassigned) [Example 19] | 10.9 µM | 0.416 µM | > 25 µM | 0.212 µM | 0.722 µM | > 97.1 µM
4 | CCOC(=O)[C@H](C)NP(=O)(OC[C@@]1(CF)O[C@@H](c2ccc3c(N)ncnn23)[C@H](O)[C@@H]1O)Oc1ccccc1 (stereo partly drawn) [Example 13, ethyl ((((2R,3S,4R,5S)-5-(4-aminopyrrolo[2,1-f][1,2,4]triazin-7-yl)-2-(fluoromethyl)-3,4-dihydroxytetrahydrofuran-2-yl)methoxy)(phenoxy)phosphoryl)-L-alaninate] | > 10.2 µM | 0.487 µM | > 25 µM | 0.274 µM | 0.844 µM | > 89.4 µM
5 | C[C@H](NP(=O)(OC[C@@]1(CF)O[C@@H](c2ccc3c(N)ncnn23)[C@H](O)[C@@H]1O)Oc1ccccc1)C(=O)OCC(C)(C)O (stereo partly drawn) [Example 26, 2-hydroxy-2-methylpropyl ((((2R,3S,4R,5S)-5-(4-aminopyrrolo[2,1-f][1,2,4]triazin-7-yl)-2-(fluoromethyl)-3,4-dihydroxytetrahydrofuran-2-yl)methoxy)(phenoxy)phosphoryl)-L-alaninate] | – | > 24 µM | > 25 µM | – | 39.3 µM | > 100 µM
6 | CC(=O)O[C@H]1[C@H](c2ccc3c(N)ncnn23)O[C@](CF)(CO[P@@](=O)(N[C@@H](C)C(=O)OC(C)C)Oc2ccccc2)[C@H]1OC(C)=O [Example 20, (2R,3S,4S,5S)-5-(4-aminopyrrolo[2,1-f][1,2,4]triazin-7-yl)-2-(fluoromethyl)-2-((((S)-(((S)-1-isopropoxy-1-oxopropan-2-yl)amino)(phenoxy)phosphoryl)oxy)methyl) tetrahydrofuran-3,4-diyl diacetate] | – | 2.57 µM | > 25 µM | – | 3.18 µM | > 100 µM
7 | CCOC(=O)[C@@H](NP(=O)(OC[C@@]1(CF)O[C@@H](c2ccc3c(N)ncnn23)[C@H](O)[C@@H]1O)Oc1ccccc1)C(C)C (stereo partly drawn) [Example 69, ethyl ((((2R,3S,4R,5S)-5-(4-aminopyrrolo[2,1-f][1,2,4]triazin-7-yl)-2-(fluoromethyl)-3,4-dihydroxytetrahydrofuran-2-yl)methoxy)(phenoxy)phosphoryl)-L-valinate] | – | > 25 µM | > 25 µM | – | > 50 µM | > 50 µM
8 | CCCCCCOC(=O)[C@H](C)NP(=O)(OC[C@@]1(CF)O[C@@H](c2ccc3c(N)ncnn23)[C@H](O)[C@@H]1O)Oc1ccccc1 (stereo partly drawn) [Example 17, hexyl ((((2R,3S,4R,5S)-5-(4-aminopyrrolo[2,1-f][1,2,4]triazin-7-yl)-2-(fluoromethyl)-3,4-dihydroxytetrahydrofuran-2-yl)methoxy)(phenoxy)phosphoryl)-L-alaninate] | – | 0.51 µM | > 25 µM | – | 0.516 µM | > 100 µM
